Measured values from patent US20160031937A1, “NEURAL REGENERATION PEPTIDES AND USES THEREFOR” (CURONZ HOLDINGS COMPANY LIMITED, priority 2013, published 2016).
Square brackets hold non-standard residues; d marks the D form. Ends that are not written are not given here. Aib = CC(C)(N)C(=O)O

Assays:
[1] = tested on: human W9-hESCs; assay: TUNEL staining for apoptotic cell death after H2O2 injury; type: cell-based; conditions: H2O2 oxidative stress, 24 hours; 100 fM NRP2945
Method: Neuronal differentiation was achieved using the noggin induction method described for mouse neurospheres as adapted by Dottori for human neurospheres (Dottori & Pera, 2007). The colonies were maintained at 37° C., with 5% CO2 in hESC medium supplemented with 500 ng/ml of Noggin for 14 days while replacing Noggin every other day.
At this point, the cells were washed with PBS and the colonies were again mechanically dissociated, but this time the central (differentiated) part of the colony was also cut into smaller pieces using a 26-gauge needle. […]
The media was replaced with fresh NBM-AO and the cells were incubated for a further 20 hours containing drug, before again measuring LDH. Oxidative stress was induced by adding 50 μM fresh H2O2 (Sigma, H1009) to the growth factor negative NBM on initiation of the experiment with continued culture for 4 hours when LDH was measured and NBM-AO without H2O2 was returned to the culture which was maintained for a further 20 hours before again measuring LDH. […]
Tunnel positive cells, wells were imaged and the images re-coded independently before quantitation. No additional blinding was performed for the machine read LDH assay process.

[2] = tested on: neuronal stem cells; assay: Neuronal chemoattraction; type: cell-based
[3] = tested on: human DU-145 prostate cancer cells; assay: DU-145 Boyden chamber motility bioassay; type: cell-based; conditions: 0.1 ng/ml NRP2945 adhered to Boyden chamber bottom plate, 24 hours of incubation
From the text: Human epithelial DU-145 cells were obtained from ATCC (HTB-81). The DU-145 cell line was originally isolated from a metastatic prostate-derived cancer formed in the brain. The cells are adherent, and co-express CXCR4 and CCR3 receptors similar to neuroblasts and neurons. For this experiment, DU-145 cells were cultivated in ATCC-formulated Eagle's Minimum Essential Medium with 10% FBS in 5% CO2 at 37′C. The cells were then subcultivated as follows.
The media was removed and discarded. The cell layer was briefly rinsed with 0.25% (w/v) trypsin and 0.5 mM EDTA to remove all remaining trypsin inhibitors from the serum. To each flask, 2-3 ml of trypsin-EDTA solution was added. This was incubated at room temperature.
The cells were observed under an inverted microscope until dislodgement (between 10-15 minutes). Shaking was avoided to prevent the cells from clumping. […]
The Boyden chamber inserts (Corning) were coated for 2 hours at 37° C. with […] poly-D-lysine (PDL; culture grade from Invitrogen). […] The coated Boyden chamber could then be refrigerated, stored, and ready for cell seeding. […]
Cells were counted and 50,000 cells were seeded into one insert of a 12-well Boyden chamber. […]
DU-145 cells attached to the lower insert membrane were visualized and counted with standard cell visualization methods using hematoxyclin staining. […]

[4] = tested on: CXCR4 gene expression; assay: CXCR4 gene expression by real time PCR; type: cell-based, human; conditions: W9-hESCs
Method: The second experiment was done to assess the capability of NRP2945 for regulating the gene expression of its target receptor subunit CXCR4. For this purpose, W9-hESCs were either exposed to 10 minute, 30 minute or 60 minute of either 10 pM or 100 pM of NRP2945 under normoxic conditions; or in combination with 4 hours of OGD injury at concentrations of either 10 pM or 100 pM of NRP2945. At the end of the 4 hours, mRNA was extracted from all the cell samples, cDNA synthesis was performed using the SuperSript® cDNA kit (Invitrogen) followed by real time PCR. The efficacy of the real time PCR was 99% when using the following primers for the CXCR4 product propagation: […]
according to the publication: Nagase, Miyamasu et al. (2000) - J Immunol 164: 5935-5943

[5] = tested on: endogenous NRP gene expression; assay: Endogenous NRP gene expression in human embryonic W9 stem cells; type: cell-based; conditions: 100 fM NRP2945
[6] = target: T1, homodimeric CXCR4 receptor (Homo sapiens, UniProt P61073); assay: 125I-SDF-1 displacement binding study (CEREP); conditions: recombinant homodimeric CXCR4 expressing HEK293 cells; unlabelled peptide in competition
T1 construct: host or cells: HEK293
Method: This was determined by radioactive ^125I-SDF-1 displacement studies using CXCR4 homodimeric receptors and unlabelled NNZ-4921 and NRP2945 in competition.

T1 sequence (P61073 whole entry): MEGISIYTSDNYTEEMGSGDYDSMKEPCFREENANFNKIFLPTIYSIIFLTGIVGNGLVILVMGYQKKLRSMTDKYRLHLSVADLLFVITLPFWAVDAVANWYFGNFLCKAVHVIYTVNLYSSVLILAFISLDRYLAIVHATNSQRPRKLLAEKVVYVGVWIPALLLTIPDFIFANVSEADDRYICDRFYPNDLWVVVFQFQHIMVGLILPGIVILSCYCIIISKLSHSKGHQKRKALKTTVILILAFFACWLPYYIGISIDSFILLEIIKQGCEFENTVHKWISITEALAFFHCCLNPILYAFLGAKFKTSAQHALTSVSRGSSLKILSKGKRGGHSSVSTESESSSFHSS

“Gly Arg Arg Ala Ala Pro Gly Arg Aib Gly Gly (GRRAAPGR[Aib]GG) [NRP2945, synthetic 11-mer peptidomimetic optimized for stability and pharmacokinetics]” was tested. Which “cells spared from apoptosis (TUNEL)” value [1] did it give?
Its value is 56.2%.

And the “neuronal chemoattractive potency relative to SDF-1” value ([2]; NRP2945 versus SDF-1)?
Its value is “more than 1 million”.

And the “EC50 values for chemoattraction” value ([2]; preliminary experiments)?
Its value is “lower femtomolar range”.

What about the “decrease of migrating cells” value [3] of the same substance?
Its value is 36%.

And the “CXCR4 gene expression in the presence of OGD” value ([4]; 4 hours of OGD, 10 pM or 100 pM NRP2945)?
Its value is “unchanged”.

And the “expression of CXCR4 gene” value ([4]; normoxic conditions, 10 pM or 100 pM NRP2945, relative to normoxic control, normalised to β actin)?
The value was “decreased significantly after only 10 minutes”.

And the “time of peak in CXCR4 gene down-regulation” value ([4]; normoxic, maintained for at least 1 hour)?
The value was 30 min.

And the “extent of CXCR4 down-regulation” value ([4]; within 30 minutes)?
Its value is “constitutively expressed levels seen in a human tissue cDNA library”.

And the “time to stimulated endogenous NRP gene expression after administration” value [5]?
The value was 5 to 10 min.

And the “displacement of 125I-SDF-1 from homodimeric CXCR4 receptor” value [6]?
Its value is “do not bind to the homodimeric CXCR4 receptor”.
